Test results reported in patent publication US9018256B2, “Feed additive for animals of P-thymol, salt derivative or ester derivative thereof” (priority 2011, dated 2015).
Read-outs that look alike come from different tables or passages of the source.

What was measured:
Chemy Valley ducks = assay: Growth promoting effect test on ducks; assay type: in vivo, duck; details: 100 ppm in feed, 1 to 46-day-old ducks; for Total Feed Consumption / Total Weight Gain: 100 per group
Wistar rats = assay: Rat oral LD50 measurement (improved Karber's method); assay type: in vivo
staphylococcus aureus = assay: In-vitro antibacterial activity, tube double dilution method; assay type: cell-based
clostridium perfringens = assay type: cell-based
salmonella choleraesuis = assay: In-vitro antibacterial activity, tube double dilution method; assay type: cell-based
rats = details: rat, in vivo; cited from earlier work
[1] = Volatility comparison under reduced-pressure drying; details: for weight remained after reduced-pressure drying: initial weight 10.0 g
black carps = assay: Application in aquatic feed (black carp growth test); assay type: in vivo; details: for average weight gain improved compared with the control group / feed conversion rate (FCR) / feed conversion rate reduced compared with the control group / final weight / weight gain: 100 ppm in feed, black carps, 8 weeks
escherichia coli = assay: In-vitro antibacterial activity, tube double dilution method; assay type: cell-based
salmonella gallinarum = assay type: cell-based
[2] = tested on: three-way cross weaned pigs; assay: Growth promoting effect test on weaned pigs; assay type: in vivo, pig; details: 100 ppm in feed, 30 days; for Total Feed Consumption / Total Weight Gain: 30 per group
salmonella bacillus = assay type: cell-based
[3] = Changes in chicken complete formula feed during preservation (gas chromatography); details: 25-30° C., initial 100 ppm
[4] = tested on: Lingnan yellow big chicken; assay: Comparison of chicken growth promoting effects of p-thymol, thymol and carvacrol; assay type: in vivo; details: 100 ppm in feed, 1 to 21-day-old chickens; for Total Feed Consumption / Total Weight Gain: 50 per group
[5] = rat, oral, preliminary experiment
[6] = clostridium perfringens CAU0591
[7] = clostridium perfringens CAU0795
[8] = clostridium perfringens CAU0855
[9] = clostridium perfringens CAU0859
[10] = clostridium perfringens HNAU160
[11] = clostridium perfringens HNAU166
[12] = salmonella choleraesuis CEC19940141
[13] = salmonella choleraesuis CEC19940146

Cc1ccc(C(C)C)cc1O [carvacrol, 2-methyl-5-isopropyl-phenol]
Feed Conversion Rate (Chemy Valley ducks): 2.739
Survival Rate (Chemy Valley ducks): 100%
feed conversion rate reduced compared with the control group (Chemy Valley ducks): 0.049
relative weight gain rate improved compared with the control group (Chemy Valley ducks): 2.51%
Total Feed Consumption (Chemy Valley ducks): 928.3 kg
Total Weight Gain (Chemy Valley ducks): 338.9 kg
Relative Weight Gain Rate (Chemy Valley ducks; control = 100): 102.51%
Toxicity Judgment (Wistar rats; rat oral LD50 grading): relative
LD50 (Wistar rats; rat, oral, observed 7 days): 6400 mg/kg weight
Dm (dose causing 100% death) (Wistar rats; [5]): 1800 mg/kg weight
Dn (dose causing 0% death) (Wistar rats; [5]): 400 mg/kg weight
Inhibiting Activity (minimum bacteria inhibiting concentration) (staphylococcus aureus; s. aureus CAU0804): 500 µg/mL
Inhibiting Activity (minimum bacteria inhibiting concentration) (staphylococcus aureus; s. aureus CAU0810): 250 µg/mL
Inhibiting Activity (minimum bacteria inhibiting concentration) (staphylococcus aureus; s. aureus CAU0837): 250 µg/mL
Inhibiting Activity (minimum bacteria inhibiting concentration) (staphylococcus aureus; s. aureus CAU0866): 250 µg/mL
Inhibiting Activity (minimum bacteria inhibiting concentration) (staphylococcus aureus; s. aureus CAU0868): 250 µg/mL
Inhibiting Activity (minimum bacteria inhibiting concentration) (staphylococcus aureus; s. aureus CAU0869): 250 µg/mL
Inhibiting Activity (minimum bacteria inhibiting concentration) (staphylococcus aureus; s. aureus CAU0871): 250 µg/mL
Inhibiting Activity (minimum bacteria inhibiting concentration) (clostridium perfringens; [6]): 500 µg/mL
Inhibiting Activity (minimum bacteria inhibiting concentration) (clostridium perfringens; [7]): 250 µg/mL
Inhibiting Activity (minimum bacteria inhibiting concentration) (clostridium perfringens; [8]): 500 µg/mL
Inhibiting Activity (minimum bacteria inhibiting concentration) (clostridium perfringens; [9]): 500 µg/mL
Inhibiting Activity (minimum bacteria inhibiting concentration) (clostridium perfringens; [10]): 500 µg/mL
Inhibiting Activity (minimum bacteria inhibiting concentration) (clostridium perfringens; [11]): 250 µg/mL
Inhibiting Activity (minimum bacteria inhibiting concentration) (salmonella choleraesuis; [12]): 500 µg/mL
Inhibiting Activity (minimum bacteria inhibiting concentration) (salmonella choleraesuis; [13]): 250 µg/mL
oral median lethal dose (LD50) of rats (rats): 810 mg/kg weight
weight remained after reduced-pressure drying ([1]; 50° C., 1 hour): 4.84 g
weight remained after reduced-pressure drying ([1]; 70° C., 1 hour): 0 g
weight remained after reduced-pressure drying ([1]; 90° C., 1 hour): 0 g
volatilization (in words) ([1]; reduced-pressure drying within 1 hour at 70° C. and over): completely volatilized
average weight gain improved compared with the control group (black carps): 3.52%
feed conversion rate (FCR) (black carps): 1.45 ± 0.06
feed conversion rate reduced compared with the control group (black carps): 2.68%
final weight (black carps): 598.08 ± 27.11 g
weight gain (black carps): 138.0 ± 7.78%
survival rate (SR) (black carps; in vivo): 100%
Inhibiting Activity (minimum bacteria inhibiting concentration) (escherichia coli; escherichia coli CAU0020): 250 µg/mL
Inhibiting Activity (minimum bacteria inhibiting concentration) (escherichia coli; escherichia coli CAU0053): 500 µg/mL
Inhibiting Activity (minimum bacteria inhibiting concentration) (escherichia coli; escherichia coli CAU0147): 250 µg/mL
Inhibiting Activity (minimum bacteria inhibiting concentration) (escherichia coli; escherichia coli CAU0159): 250 µg/mL
Inhibiting Activity (minimum bacteria inhibiting concentration) (escherichia coli; escherichia coli CAU0195): 500 µg/mL
Inhibiting Activity (minimum bacteria inhibiting concentration) (salmonella gallinarum; salmonella gallinarum CAU0205): 250 µg/mL
Inhibiting Activity (minimum bacteria inhibiting concentration) (salmonella gallinarum; salmonella gallinarum CAU0206): 500 µg/mL
Inhibiting Activity (minimum bacteria inhibiting concentration) (salmonella gallinarum; salmonella gallinarum QAU0399): 500 µg/mL
Feed Conversion Rate [2]: 2.336
Survival Rate [2]: 100%
feed conversion rate reduced compared with the control group [2]: 0.085
relative weight gain rate improved compared with the control group [2]: 4.69%
Total Feed Consumption [2]: 798.1 kg
Total Weight Gain [2]: 341.7 kg
Relative Weight Gain Rate ([2]; control = 100): 104.69%
Inhibiting Activity (minimum bacteria inhibiting concentration) (salmonella bacillus): 250 µg/mL
concentration measured after extraction from the complete formula feed ([3]; 1 day): 99.6 ppm
concentration measured after extraction from the complete formula feed ([3]; 15 days): 87.7 ppm
concentration measured after extraction from the complete formula feed ([3]; 30 days): 73.1 ppm
concentration measured after extraction from the complete formula feed ([3]; 45 days): 58.5 ppm
concentration measured after extraction from the complete formula feed ([3]; 60 days): 42.6 ppm
Average Weight Gain [4]: 332.9 g
Feed Conversion Rate [4]: 1.761
Survival Rate [4]: 100%
feed conversion rate reduced compared with the control group [4]: 0.021
relative weight gain rate improved compared with the control group [4]: 3.19%
Total Feed Consumption [4]: 29.32 kg
Total Weight Gain [4]: 16.65 kg
Relative Weight Gain Rate ([4]; control = 100): 103.19%

Cc1ccc(C(C)C)c(O)c1 [thymol, 5-methyl-2-isopropyl-phenol]
Feed Conversion Rate (Chemy Valley ducks): 2.726
Survival Rate (Chemy Valley ducks): 100%
feed conversion rate reduced compared with the control group (Chemy Valley ducks): 0.062
Total Feed Consumption (Chemy Valley ducks): 940.7 kg
Total Weight Gain (Chemy Valley ducks): 345.1 kg
Inhibiting Activity (minimum bacteria inhibiting concentration) (staphylococcus aureus; s. aureus CAU0804): 500 µg/mL
Inhibiting Activity (minimum bacteria inhibiting concentration) (staphylococcus aureus; s. aureus CAU0810): 125 µg/mL
Inhibiting Activity (minimum bacteria inhibiting concentration) (staphylococcus aureus; s. aureus CAU0837): 250 µg/mL
Inhibiting Activity (minimum bacteria inhibiting concentration) (staphylococcus aureus; s. aureus CAU0866): 250 µg/mL
Inhibiting Activity (minimum bacteria inhibiting concentration) (staphylococcus aureus; s. aureus CAU0868): 250 µg/mL
Inhibiting Activity (minimum bacteria inhibiting concentration) (staphylococcus aureus; s. aureus CAU0869): 125 µg/mL
Inhibiting Activity (minimum bacteria inhibiting concentration) (staphylococcus aureus; s. aureus CAU0871): 250 µg/mL
Inhibiting Activity (minimum bacteria inhibiting concentration) (clostridium perfringens; [6]): 250 µg/mL
Inhibiting Activity (minimum bacteria inhibiting concentration) (clostridium perfringens; [7]): 250 µg/mL
Inhibiting Activity (minimum bacteria inhibiting concentration) (clostridium perfringens; [8]): 250 µg/mL
Inhibiting Activity (minimum bacteria inhibiting concentration) (clostridium perfringens; [9]): 250 µg/mL
Inhibiting Activity (minimum bacteria inhibiting concentration) (clostridium perfringens; [10]): 500 µg/mL
Inhibiting Activity (minimum bacteria inhibiting concentration) (clostridium perfringens; [11]): 250 µg/mL
Inhibiting Activity (minimum bacteria inhibiting concentration) (salmonella choleraesuis; [12]): 250 µg/mL
Inhibiting Activity (minimum bacteria inhibiting concentration) (salmonella choleraesuis; [13]): 250 µg/mL
weight remained after reduced-pressure drying ([1]; 50° C., 1 hour): 6.12 g
weight remained after reduced-pressure drying ([1]; 70° C., 1 hour): 1.02 g
weight remained after reduced-pressure drying ([1]; 90° C., 1 hour): 0 g
volatilized part ([1]; reduced-pressure drying 70° C., 1 hour): 89.8%
average weight gain improved compared with the control group (black carps): 4.53%
feed conversion rate (FCR) (black carps): 1.44 ± 0.08
feed conversion rate reduced compared with the control group (black carps): 3.36%
final weight (black carps): 601.58 ± 28.02 g
weight gain (black carps): 139.29 ± 7.37%
Inhibiting Activity (minimum bacteria inhibiting concentration) (escherichia coli; escherichia coli CAU0020): 250 µg/mL
Inhibiting Activity (minimum bacteria inhibiting concentration) (escherichia coli; escherichia coli CAU0053): 250 µg/mL
Inhibiting Activity (minimum bacteria inhibiting concentration) (escherichia coli; escherichia coli CAU0147): 250 µg/mL
Inhibiting Activity (minimum bacteria inhibiting concentration) (escherichia coli; escherichia coli CAU0159): 250 µg/mL
Inhibiting Activity (minimum bacteria inhibiting concentration) (escherichia coli; escherichia coli CAU0195): 250 µg/mL
Inhibiting Activity (minimum bacteria inhibiting concentration) (salmonella gallinarum; salmonella gallinarum CAU0205): 500 µg/mL
Inhibiting Activity (minimum bacteria inhibiting concentration) (salmonella gallinarum; salmonella gallinarum CAU0206): 250 µg/mL
Inhibiting Activity (minimum bacteria inhibiting concentration) (salmonella gallinarum; salmonella gallinarum QAU0399): 500 µg/mL
Feed Conversion Rate [2]: 2.324
Survival Rate [2]: 100%
feed conversion rate reduced compared with the control group [2]: 0.097
Total Feed Consumption [2]: 796.3 kg
Total Weight Gain [2]: 342.6 kg
Inhibiting Activity (minimum bacteria inhibiting concentration) (salmonella bacillus): 250 µg/mL
concentration measured after extraction from the complete formula feed ([3]; 1 day): 100.4 ppm
concentration measured after extraction from the complete formula feed ([3]; 15 days): 90.2 ppm
concentration measured after extraction from the complete formula feed ([3]; 30 days): 78.9 ppm
concentration measured after extraction from the complete formula feed ([3]; 45 days): 63.7 ppm
concentration measured after extraction from the complete formula feed ([3]; 60 days): 49.7 ppm
Average Weight Gain [4]: 334.8 g
Feed Conversion Rate [4]: 1.756
Survival Rate [4]: 100%
feed conversion rate reduced compared with the control group [4]: 0.026
Total Feed Consumption [4]: 29.40 kg
Total Weight Gain [4]: 16.74 kg
